Measurements taken from US20240254139A1, “FUSED ISOXAZOLYL COMPOUNDS AS KAT6A INHIBITORS” (Aurigene Oncology Limited, priority 2021, published 2024).

Biological target: T1, human-KAT6A (MYST domain 507-778 aa) (Homo sapiens, UniProt Q92794)
T1 construct: human-KAT6A (MYST domain 507-778 aa)
Assay: KAT6A biochemical assay (TR-FRET)
Conditions: for inhibition at 1 µM: compound at 1 μM, percent inhibition of internal assay controls; for IC50: dose-response, sigmoidal curve fit, groups A, B, C
From the text: A TR-FRET based method was used for assaying compounds of the invention for KAT6A enzyme inhibitory activity. TR-FRET is homogeneous proximity assay where Europium-labelled anti-acetyl lysine antibody binds to the acetylated substrate labelled with biotin which in turn binds to streptavidin labelled APC fluorescence acceptor. Europium can transfer energy to APC in the complex and the interaction of two dye-labelled binding partners is detected by the energy transfer between a donor and an acceptor dye, and the subsequent light emission by the acceptor dye. KAT6A transfer an acetyl group from acetyl CoA to lysine amino acids of histones/target proteins. Typically, 5 μL of human-KAT6A (MYST domain 507-778 aa) in assay buffer (100 mM Tris HCl (pH 7.8), 15 mM NaCl, 1 mM EDTA, 0.01% Tween-20, 0.02% BSA, 1 mM DTT) is added to a 384-well plate containing 5 μL of selected test compound in final 1% DMSO, serially diluted in 1:3 in an 8-10-point titration. The selected compound of the present invention and enzyme are incubated for 30 min at room temperature. Next, 5 μL of substrate mix containing histone H4 peptide and acetyl-CoA in assay buffer is added to the plate. The final concentrations of H4 peptide and acetyl-CoA are 200 nM and 600 nM respectively. Following 30 min reaction at room temperature, 5 μL of detection mix containing Europium labelled anti-acetyl antibody and streptavidin-APC is added to the reaction wells. Plate is further incubated for 45 min at room temperature and is read in TR-FRET mode (Ex: 340 nm; Em: 615 nm and 665 nm) on a plate reader.
Selected compounds of the present invention were screened in the above-mentioned assay procedure and IC50 values were determined by fitting the dose-response data to sigmoidal curve fitting equation using Graph pad prism software V8. […]

T1 sequence (Q92794 507-778): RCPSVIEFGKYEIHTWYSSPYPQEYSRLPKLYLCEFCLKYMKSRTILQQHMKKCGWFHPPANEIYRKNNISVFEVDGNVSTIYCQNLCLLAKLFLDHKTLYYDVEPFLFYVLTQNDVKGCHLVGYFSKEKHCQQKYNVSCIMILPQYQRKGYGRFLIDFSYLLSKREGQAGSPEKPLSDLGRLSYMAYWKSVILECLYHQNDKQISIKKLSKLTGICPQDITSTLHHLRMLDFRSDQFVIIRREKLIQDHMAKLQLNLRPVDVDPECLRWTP

Compound	inhibition at 1 µM	IC50	inhibition at 10 µM (compound at 10 μM (stated in the cell), read-out: Percent Inhibition (at 10 μM))
COc1cccc(OC)c1S(=O)(=O)Nc1noc2nc(-c3ccccc3)cc(OC)c12 [Compound 1, 2,6-dimethoxy-N-(4-methoxy-6-phenylisoxazolo[5,4-b]pyridin-3-yl)benzenesulfonamide]	100%	< 0.1 µM	
COc1cccc(OC)c1S(=O)(=O)Nc1noc2nc(-c3ccccc3)nc(OC)c12 [Compound 2, 2,6-dimethoxy-N-(4-methoxy-6-phenylisoxazolo[5,4-d]pyrimidin-3-yl)benzenesulfonamide]	100%	< 0.1 µM	
COc1cccc(OC)c1S(=O)(=O)Nc1noc2cc(-c3ccccc3)nc(OC)c12 [Compound 3, 2,6-dimethoxy-N-(4-methoxy-6-phenylisoxazolo[4,5-c]pyridin-3-yl)benzenesulfonamide]	96%	0.11 to 0.2 µM	
COc1cccc(OC)c1S(=O)(=O)Nc1noc2cc(-c3ccccc3)n(C)c(=O)c12 [Compound 4, 2,6-dimethoxy-N-(5-methyl-4-oxo-6-phenyl-4,5-dihydroisoxazolo[4,5-c]pyridin-3-yl)benzenesulfonamide]	23%		
COc1cc(-c2ccccc2)nc2onc(NS(=O)(=O)c3ccccc3-c3ccccc3)c12 [Compound 5, N-(4-methoxy-6-phenylisoxazolo[5,4-b]pyridin-3-yl)-[1,1′-biphenyl]-2-sulfonamide]	52%	< 0.1 µM	
COc1cccc(OC)c1S(=O)(=O)Nc1noc2cc(-c3ccccc3)cnc12 [Compound 6, 2,6-dimethoxy-N-(6-phenylisoxazolo[4,5-b]pyridin-3-yl)benzenesulfonamide]			58%
COc1cc(-c2ccccc2)nc2onc(NS(=O)(=O)c3ccccc3OC(F)(F)F)c12 [Compound 7, N-(4-methoxy-6-phenylisoxazolo[5,4-b]pyridin-3-yl)-2-(trifluoromethoxy)benzenesulfonamide]	25%		
COc1ccccc1S(=O)(=O)Nc1noc2nc(-c3ccccc3)cc(OC)c12 [Compound 8, 2-methoxy-N-(4-methoxy-6-phenylisoxazolo[5,4-b]pyridin-3-yl)benzenesulfonamide]	82%	0.11 to 0.2 µM	
CCOc1ccccc1S(=O)(=O)Nc1noc2nc(-c3ccccc3)cc(OC)c12 [Compound 9, 2-ethoxy-N-(4-methoxy-6-phenylisoxazolo[5,4-b]pyridin-3-yl)benzenesulfonamide]	62%	> 0.2 µM	
COc1ccccc1-c1cc(OC)c2c(NS(=O)(=O)c3c(OC)cccc3OC)noc2n1 [Compound 10, 2,6-dimethoxy-N-(4-methoxy-6-(2-methoxyphenyl)isoxazolo[5,4-b]pyridin-3-yl)benzenesulfonamide]	100%	< 0.1 µM	
COc1cccc(OC)c1S(=O)(=O)Nc1noc2cc(-c3ccccc3)ncc12 [Compound 11, 2,6-dimethoxy-N-(6-phenylisoxazolo[4,5-c]pyridin-3-yl)benzenesulfonamide]	12%		
COc1cccc(OC)c1S(=O)(=O)Nc1noc2nc(N3CCCCC3)cc(OC)c12 [Compound 12, 2,6-dimethoxy-N-(4-methoxy-6-(piperidin-1-yl)isoxazolo[5,4-b]pyridin-3-yl)benzenesulfonamide]	54%		
COc1cccc(OC)c1S(=O)(=O)Nc1noc2nc(N3CCCC3)cc(OC)c12 [Compound 13, 2,6-dimethoxy-N-(4-methoxy-6-(pyrrolidin-1-yl)isoxazolo[5,4-b]pyridin-3-yl)benzenesulfonamide]	97%	0.11 to 0.2 µM	
COc1cccc(OC)c1S(=O)(=O)Nc1noc2nc(N3CCOCC3)cc(OC)c12 [Compound 14, 2,6-dimethoxy-N-(4-methoxy-6-morpholinoisoxazolo[5,4-b]pyridin-3-yl)benzenesulfonamide]	49%		
COc1cccc(OC)c1S(=O)(=O)Nc1noc2nc(N(C)C)cc(OC)c12 [Compound 15, N-(6-(dimethylamino)-4-methoxyisoxazolo[5,4-b]pyridin-3-yl)-2,6-dimethoxybenzenesulfonamide]	59%	> 0.2 µM	
COc1cccc(OC)c1S(=O)(=O)Nc1noc2nc(N3CCC3)cc(OC)c12 [Compound 16, N-(6-(azetidin-1-yl)-4-methoxyisoxazolo[5,4-b]pyridin-3-yl)-2,6-dimethoxybenzenesulfonamide]	100%	0.11 to 0.2 µM	

Compound	inhibition at 1 µM	IC50	inhibition at 10 µM (compound at 10 μM (stated in the cell), read-out: Percent Inhibition (at 10 μM))
COc1cccc(OC)c1S(=O)(=O)Nc1noc2nc(N3CC(OC)C3)cc(OC)c12 [Compound 17, 2,6-dimethoxy-N-(4-methoxy-6-(3-methoxyazetidin-1-yl)isoxazolo[5,4-b]pyridin-3-yl)benzenesulfonamide]	100%	0.11 to 0.2 µM	
COc1cccc(OC)c1S(=O)(=O)Nc1noc2nc(N3CCC(F)(F)C3)cc(OC)c12 [Compound 18, N-(6-(3,3-difluoropyrrolidin-1-yl)-4-methoxyisoxazolo[5,4-b]pyridin-3-yl)-2,6-dimethoxybenzenesulfonamide]	100%	< 0.1 µM	
COc1cccc(OC)c1S(=O)(=O)Nc1noc2nc(N3CCC(OC)C3)cc(OC)c12 (stereo not shown) [Compound 19, 2,6-dimethoxy-N-(4-methoxy-6-(3-methoxypyrrolidin-1-yl)isoxazolo[5,4-b]pyridin-3-yl)benzenesulfonamide]	92%	0.11 to 0.2 µM	
COc1cccc(OC)c1S(=O)(=O)Nc1noc2ncncc12 [Compound 20, N-(isoxazolo[5,4-d]pyrimidin-3-yl)-2,6-dimethoxybenzenesulfonamide]	14%		
COc1cccc(OC)c1S(=O)(=O)Nc1noc2cnccc12 [Compound 21, N-(isoxazolo[5,4-c]pyridin-3-yl)-2,6-dimethoxybenzenesulfonamide]	11%		
COc1cccc(OC)c1S(=O)(=O)Nc1noc2nccnc12 [Compound 22, N-(isoxazolo[4,5-b]pyrazin-3-yl)-2,6-dimethoxybenzenesulfonamide]	12%		
COc1cccc(OC)c1S(=O)(=O)Nc1noc2ncccc12 [Compound 24, N-(isoxazolo[5,4-b]pyridin-3-yl)-2,6-dimethoxybenzenesulfonamide]	13%		
COc1cc(-c2ccccc2)nc2onc(NS(=O)(=O)c3c(F)cccc3F)c12 [Compound 25, 2,6-difluoro-N-(4-methoxy-6-phenylisoxazolo[5,4-b]pyridin-3-yl)benzenesulfonamide]	30%		
COc1cc(-c2ccccc2)nc2onc(NS(=O)(=O)c3ccccc3F)c12 [Compound 26, 2-fluoro-N-(4-methoxy-6-phenylisoxazolo[5,4-b]pyridin-3-yl)benzenesulfonamide]	23%		
COc1cccc(OC)c1S(=O)(=O)Nc1noc2nc(N(C)C3CCCCC3)cc(OC)c12 [Compound 27, N-(6-(cyclohexyl(methyl)amino)-4-methoxyisoxazolo[5,4-b]pyridin-3-yl)-2,6-dimethoxybenzenesulfonamide]	17%		
COc1cccc(OC)c1S(=O)(=O)Nc1noc2nc(N3CC(F)(F)C3)cc(OC)c12 [Compound 28, N-(6-(3,3-difluoroazetidin-1-yl)-4-methoxyisoxazolo[5,4-b]pyridin-3-yl)-2,6-dimethoxybenzenesulfonamide]	80%	> 0.2 µM	
COc1ccc(CN(C)c2cc(OC)c3c(NS(=O)(=O)c4c(OC)cccc4OC)noc3n2)cc1 [Compound 29, 2,6-dimethoxy-N-(4-methoxy-6-((4-methoxybenzyl)(methyl)amino)isoxazolo[5,4-b]pyridin-3-yl)benzenesulfonamide]	38%		
CCN(Cc1ccc(OC)cc1)c1cc(OC)c2c(NS(=O)(=O)c3c(OC)cccc3OC)noc2n1 [Compound 30, N-(6-(ethyl(4-methoxybenzyl)amino)-4-methoxyisoxazolo[5,4-b]pyridin-3-yl)-2,6-dimethoxybenzenesulfonamide]	56%		
COc1cccc(OC)c1S(=O)(=O)Nc1noc2nc(-c3ccsc3)cc(OC)c12 [Compound 31, 2,6-dimethoxy-N-(4-methoxy-6-(thiophen-3-yl)isoxazolo[5,4-b]pyridin-3-yl)benzenesulfonamide]		< 0.1 µM	
COc1cccc(OC)c1S(=O)(=O)Nc1noc2nc(C3=CCCC3)cc(OC)c12 [Compound 32, N-(6-(cyclopent-1-en-1-yl)-4-methoxyisoxazolo[5,4-b]pyridin-3-yl)-2,6-dimethoxybenzenesulfonamide]		0.11 to 0.2 µM	
CCc1ccc(OC)c(S(=O)(=O)Nc2noc3nc(-c4ccccc4)cc(OC)c23)c1 [Compound 33, 5-ethyl-2-methoxy-N-(4-methoxy-6-phenylisoxazolo[5,4-b]pyridin-3-yl)benzenesulfonamide]		< 0.1 µM	
